Results published in patent US6413517B1, “Identification of broadly reactive DR restricted epitopes” (Epimmune, Inc., priority 1997, dated 2002).
Where two headings read alike, the source gives them in different places. No end group written: not given here.

Assays:
[1] = test system: panel of purified HLA DR molecules; type: binding, human
DRB1*0101 (DR1) = molecular target: T1, DRB1*0101 (DR1) (Homo sapiens, UniProt P01903+P01911, A100R/D57E/F55L/F60I/F76Y/I96L/L162R/M171V/P40L/Q125E/R42F/V115G/Y59C); test: biochemical; type: binding
T1 construct: Epstein-Barr virus (EBV) transformed homozygous cell lines were used as sources; endogenous in cells; host or cells: LG2 (EBV-transformed homozygous B cell line)

DRB1*0901 (DR9) = molecular target: T2, DRB1*0901 (DR9) (Homo sapiens, UniProt P01903+P01911, A100R/A103E/D57H/D86V/F55Y/F60I/F76Y/I96F/K127E/L162R/M171V/P40D/Q125H/Q99R/R33Q/R42F/S133A/S66N/T210M/V115G/W38K/Y107V/Y59G/Y89S); test: biochemical; type: binding
T2 construct: Epstein-Barr virus (EBV) transformed homozygous cell lines were used as sources; endogenous in cells

DRB1*0701 (DR7) = molecular target: T3, DRB1*0701 (DR7) (Homo sapiens, UniProt P01903+P01911, A100R/A102G/A103Q/D57E/D86V/E43K/F76Y/K127E/L162R/M171V/P40G/Q125H/Q99D/R33Q/R42Y/R54Q/S133A/S66F/T210M/V115G/Y107V/Y59L/Y89S); test: biochemical; type: binding
T3 construct: Epstein-Barr virus (EBV) transformed homozygous cell lines were used as sources; endogenous in cells; host or cells: PITOUT (EBV-transformed homozygous B cell line)

DRB5*0101 (DR2w2a) = molecular target: T4, DRB5*0101 (DR2w2a) (Homo sapiens, UniProt P01903+Q30154); test: biochemical; type: binding
T4 construct: Epstein-Barr virus (EBV) transformed homozygous cell lines were used as sources; endogenous in cells; host or cells: GM3107 (EBV-transformed homozygous B cell line)

DRB1*0802 (DR8w2) = molecular target: T5, DRB1*0802 (DR8w2) (Homo sapiens, UniProt P01903+P01911, A100R/A103L/A169T/F76Y/H45Y/I96F/K41T/L162R/M171V/P40S/Q125H/Q178H/Q39Y/Q99D/R218S/R42G/S66Y/V115G/W38E); test: biochemical; type: binding
T5 construct: Epstein-Barr virus (EBV) transformed homozygous cell lines were used as sources; endogenous in cells; host or cells: OLL (EBV-transformed homozygous B cell line)

DRB1*1201 (DR5w12) = molecular target: T6, DRB1*1201 (DR5w12) (Homo sapiens, UniProt P01903+P01911, A100R/A169T/D57E/D86V/F55L/H45Y/K41T/L162R/M171V/P40S/Q125H/Q178H/Q39Y/Q99D/R42G/S66L/T262R/V114A/V67L/W38E/Y59H/Y61H/Y89S); test: biochemical; type: binding
T6 construct: Epstein-Barr virus (EBV) transformed homozygous cell lines were used as sources; endogenous in cells; host or cells: Herluf (EBV-transformed homozygous B cell line)

DRB1*1101 (DR5w11) = molecular target: T7, DRB1*1101 (DR5w11) (Homo sapiens, UniProt P01903+P01911, A100R/A169T/A87E/I96F/K41T/L162R/M171V/P40S/Q125H/Q178H/Q39Y/Q99D/R42S/S66Y/T262R/V115G/W38E); test: biochemical; type: binding
T7 construct: Epstein-Barr virus (EBV) transformed homozygous cell lines were used as sources; endogenous in cells; host or cells: SWEIG (EBV-transformed homozygous B cell line)
T7 sequence (P01903 26-254, other chains not shown): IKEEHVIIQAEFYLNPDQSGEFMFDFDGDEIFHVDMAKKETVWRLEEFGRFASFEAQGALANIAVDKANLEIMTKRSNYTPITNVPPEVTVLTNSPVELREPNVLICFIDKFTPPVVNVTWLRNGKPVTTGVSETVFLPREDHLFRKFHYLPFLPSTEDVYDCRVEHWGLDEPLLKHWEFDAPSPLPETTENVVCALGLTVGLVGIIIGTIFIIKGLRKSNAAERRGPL

DRB1*0301 (DR3w17) [2] = molecular target: T8, DRB1*0301 (DR3w17) (Homo sapiens, UniProt P01903+P01911, A100K/A102G/A103R/A169T/F55Y/I96L/K41T/L162R/M171V/P40S/Q125H/Q178H/Q39Y/R42S/S66N/T106N/T262R/W38E/Y61H); test: biochemical; details: Binding Capacity (IC50% nM) DR3
DRB1*0405 (DR4w15) = molecular target: T9, DRB1*0405 (DR4w15) (Homo sapiens, UniProt P01903+P01911, A100R/A169T/D86S/F76Y/I96L/K127E/L162R/M171V/N62H/P40V/Q125Y/R42H/S133A/S149N/S66Y/V115G/V209L/W38E); test: biochemical; type: binding
T9 construct: Epstein-Barr virus (EBV) transformed homozygous cell lines were used as sources; endogenous in cells; host or cells: KT3 (EBV-transformed homozygous B cell line)

DRB1*0301 (DR3w17) [3] = molecular target: T8, DRB1*0301 (DR3w17); details: read-out: Binding Capacity (IC 50% nM) Other Alleles DR3
DRB1*1501 (DR2w2b) = molecular target: T10, DRB1*1501 (DR2w2b) (Homo sapiens, UniProt P01903+P01911); test: biochemical; type: binding
T10 construct: expressed in transfected cells; host or cells: transfected fibroblasts L466.1

DRB1*1302 (DR6w19) = molecular target: T11, DRB1*1302 (DR6w19) (Homo sapiens, UniProt P01903+P01911, A100E/A169T/K41T/L162R/M171V/P40S/Q125H/Q178H/Q39Y/Q99D/R42S/S66N/T262R/V115G/W38E/Y61H); test: biochemical; type: binding
T11 construct: Epstein-Barr virus (EBV) transformed homozygous cell lines were used as sources; the source of Class II molecules the EBV transformed homozygous cell line H0301; endogenous in cells; host or cells: H0301 (EBV-transformed homozygous B cell line)

DRB1*0401 (DR4w4) = molecular target: T12, DRB1*0401 (DR4w4) (Homo sapiens, UniProt P01903+P01911, A100K/A169T/F76Y/I96L/K127E/L162R/M171V/N62H/P40V/Q125Y/R42H/S133A/S149N/S66Y/V115G/V209L/W38E); test: biochemical; type: binding
T12 construct: Epstein-Barr virus (EBV) transformed homozygous cell lines were used as sources; endogenous in cells; host or cells: PREISS (EBV-transformed homozygous B cell line)

[4] = Binding Capacity (IC50% nM) DR1
[5] = Binding Capacity (IC 50% nM) DR1,4,7 DRB1
[6] = Binding Capacity (IC50% nM) DR9
[7] = read-out: Binding Capacity (IC 50% nM) Other Alleles DR9
[8] = Binding Capacity (IC50% nM) DR7
[9] = read-out: Binding Capacity (IC 50% nM) DR1,4,7 DR7
[10] = Binding Capacity (IC 50% nM) Other Alleles DR2w2a
[11] = Binding Capacity (IC50% nM) DR8w2
[12] = Binding Capacity (IC50% nM) DR5w12
[13] = read-out: Binding Capacity (IC 50% nM) Other Alleles DR5w12
[14] = Binding Capacity (IC50% nM) DR5w11
[15] = Binding Capacity (IC50% nM) DR4w15
[16] = Binding Capacity (IC 50% nM) Other Alleles DR4w15
[17] = Binding Capacity (IC50% nM) DR2w2b
[18] = read-out: Binding Capacity (IC 50% nM) Other Alleles DR2w2b
[19] = Binding Capacity (IC50% nM) DR6w19
[20] = read-out: Binding Capacity (IC 50% nM) Other Alleles DR6w19
[21] = Binding Capacity (IC 50% nM) DR1,4,7 DR4w4
[22] = Binding Capacity (IC50% nM) DR4w4
[23] = Binding Capacity (IC50% nM) DR2w2a
[24] = read-out: Binding Capacity (IC 50% nM) Other Alleles DR2w2a
[25] = read-out: Binding Capacity (IC 50% nM) Other Alleles DR8w2
[26] = read-out: Binding Capacity (IC 50% nM) Other Alleles DR5w11
[27] = read-out: Binding Capacity (IC 50% nM) Other Alleles DR4w15

Row | Molecule | IC50 (DRB1*0101 (DR1); [4]) | IC50 (DRB1*0101 (DR1); [5]) | IC50 (DRB1*0901 (DR9); [6]) | IC50 (DRB1*0901 (DR9); [7]) | IC50 (DRB1*0701 (DR7); [8]) | IC50 (DRB1*0701 (DR7); [9]) | IC50 (DRB1*0802 (DR8w2); [11]) | IC50 (DRB1*1201 (DR5w12); [12]) | IC50 (DRB1*1201 (DR5w12); [13]) | IC50 (DRB1*1101 (DR5w11); [14]) | IC50 (DRB1*0301 (DR3w17) [2]) | IC50 (DRB1*0405 (DR4w15); [15]) | IC50 (DRB1*0301 (DR3w17) [3]) | IC50 (DRB1*1501 (DR2w2b); [17]) | IC50 (DRB1*1501 (DR2w2b); [18]) | IC50 (DRB1*1302 (DR6w19); [19]) | IC50 (DRB1*1302 (DR6w19); [20]) | IC50 (DRB1*0401 (DR4w4); [21]) | IC50 (DRB1*0802 (DR8w2); [25]) | IC50 (DRB1*1101 (DR5w11); [26]) | other results
1 | CC[C@H](C)[C@H](NC(=O)[C@H](CO)NC(=O)[C@@H](N)CO)C(=O)N[C@H](C(=O)N[C@@H](Cc1ccccc1)C(=O)NCC(=O)N[C@@H](C)C(=O)N[C@@H](Cc1ccccc1)C(=O)N1CCC[C@H]1C(=O)N[C@@H](CO)C(=O)N[C@@H](CC(C)C)C(=O)N[C@@H](Cc1c[nH]cn1)C(=O)N[C@@H](CO)C(=O)NCC(=O)N[C@@H](CS)C(=O)N[C@@H](CS)C(=O)O)[C@@H](C)CC [Peptide 1136.38] | – | – | – | – | – | – | – | – | – | – | – | – | – | – | – | – | – | – | – | – | Total Alleles Bound [1]: 6
2 | LFHYYFLSEKAPGSTV [Peptide 1136.04] | 24 nM | < 1000 nM | 2880 nM | > 1000 nM | 3330 nM | > 1000 nM | 55 nM | > 10000 nM | > 1000 nM | 69 nM | > 10000 nM | 563 nM | > 1000 nM | 1260 nM | > 1000 nM | > 10000 nM | > 1000 nM | < 1000 nM | – | – | IC50 (DRB5*0101 (DR2w2a); [10]): < 1000 nM; IC50 (DRB1*0802 (DR8w2); Binding Capacity (IC 50% nM) Other Alleles DR8w2): < 1000 nM; IC50 (DRB1*1101 (DR5w11); Binding Capacity (IC 50% nM) Other Alleles DR5w11): < 1000 nM; IC50 (DRB1*0405 (DR4w15); [16]): < 1000 nM; IC50 (DRB1*0401 (DR4w4); [22]): 20 nM
3 | LWWSTMYLTHHYFVDL [Peptide 1136.46] | – | < 1000 nM | > 10000 nM | > 1000 nM | 5810 nM | > 1000 nM | > 10000 nM | > 10000 nM | > 1000 nM | > 10000 nM | > 10000 nM | > 10000 nM | > 1000 nM | > 10000 nM | > 1000 nM | > 10000 nM | > 1000 nM | < 1000 nM | > 1000 nM | > 1000 nM | IC50 (DRB5*0101 (DR2w2a); [23]): > 10000 nM; IC50 (DRB5*0101 (DR2w2a); [24]): > 1000 nM; IC50 (DRB1*0405 (DR4w15); [27]): > 1000 nM; IC50 (DRB1*0401 (DR4w4); [22]): 985 nM
4 | QEIDPLSYNYIPVNSN [Peptide 1136.55] | – | < 1000 nM | > 10000 nM | > 1000 nM | 2450 nM | > 1000 nM | > 10000 nM | > 10000 nM | > 1000 nM | 4540 nM | > 10000 nM | 271 nM | > 1000 nM | > 10000 nM | > 1000 nM | 5000 nM | > 1000 nM | < 1000 nM | > 1000 nM | > 1000 nM | IC50 (DRB5*0101 (DR2w2a); [23]): > 10000 nM; IC50 (DRB5*0101 (DR2w2a); [24]): > 1000 nM; IC50 (DRB1*0405 (DR4w15); [16]): < 1000 nM
5 | RVYQEPQVSPPQRAET [Peptide 1136.59.01a] | 130 nM | < 1000 nM | > 10000 nM | > 1000 nM | > 10000 nM | > 1000 nM | > 10000 nM | > 10000 nM | > 1000 nM | > 10000 nM | > 10000 nM | 3140 nM | > 1000 nM | > 10000 nM | > 1000 nM | > 10000 nM | > 1000 nM | < 1000 nM | > 1000 nM | > 1000 nM | IC50 (DRB5*0101 (DR2w2a); [10]): < 1000 nM; IC50 (DRB1*0405 (DR4w15); [27]): > 1000 nM
6 | WLFPRFKFVWVTYASW [Peptide 1136.44.01] | 526 nM | < 1000 nM | > 10000 nM | > 1000 nM | > 10000 nM | > 1000 nM | 6360 nM | > 10000 nM | > 1000 nM | 4000 nM | > 10000 nM | 6550 nM | > 1000 nM | > 10000 nM | > 1000 nM | > 10000 nM | > 1000 nM | < 1000 nM | > 1000 nM | > 1000 nM | IC50 (DRB5*0101 (DR2w2a); [23]): > 10000 nM; IC50 (DRB5*0101 (DR2w2a); [24]): > 1000 nM; IC50 (DRB1*0405 (DR4w15); [27]): > 1000 nM; IC50 (DRB1*0401 (DR4w4); [22]): 780 nM
